In US20080194658A1, “Sterol Carrier Protein-2 Inhibitors for Lowering Cholesterol and Triglyceride Levels in Mammals” (priority 2006, published 2008):

What was measured:
rats [1] = assay: Total serum cholesterol levels in rats; format: in vivo, rat; conditions: oral, varying concentrations for 5 days, all treated animals (FIG. 2)
Protocol: (§1) Mammalian species (i.e., rats) were used. Rats were fed a standard diet (3.5% fat, <0.02% cholesterol). Weaned rats were grouped into treated and controls. Rats were chosen as the testing animal so that 0.5 ml of blood samples could be taken for testing. Rats were anesthetized first in an induction chamber with isoflurane and oxygen (100%). Once anesthetized rats were positioned dorsally for the blood draw from the jugular or ventral tail vein. An anesthetic nose-cone was placed on the nose of the rat allowing isoflurane and oxygen (100%) to be delivered through a Bain circuit. After obtaining blood, the rats were allowed to recover in a shoebox cage with a heat lamp positioned over the top of the cage. Once the rats were awake and moving freely around the recovery cage, they are placed back in their normal cages. Total time for procedure is ˜15-20 minutes per rat.
N-(4-{[4-(3,4-dichlorophenyl)-1,3-thiazol-2-yl]amino}phenyl)acetamide hydrobromide was mixed with DMSO (solvent) in increasing dosages, which were feed to laboratory rats. Rats received the preparations via oral drops. Daily observations were recorded concerning (i) weight changes and (ii) mortality. Blood samples were taken every three weeks for testing cholesterol levels and for testing Alanine Aminotransferase (ALT) for liver function. […]

rats [2] = assay: Serum ALT levels in rats (liver function); format: in vivo; conditions: oral, various dosages for 5 days (FIG. 3)
Protocol: as §1
N-(4-{[4-(3,4-dichlorophenyl)-1,3-thiazol-2-yl]amino}phenyl)acetamide hydrobromide was mixed with DMSO (solvent) in increasing dosages, which were feed to laboratory rats. Rats received the preparations via oral drops. Daily observations were recorded concerning (i) weight changes and (ii) mortality. […]
The vertebrate SCP-2 is involved in cholesterol metabolism, therefore, cholesterol homeostasis is advantageously monitored when SCP-2 inhibitors are tested in mammalian species. […]

[3] = Growth rate of young rats upon oral administration; format: in vivo; conditions: young rats starting at 20 days of age, 5 days/week at various dosages (FIG. 1)
Protocol: FIG. 1 is a graph showing growth rates of young rats (starting at 20 days of age) upon oral administration of N-(4-{[4-(3,4-dichlorophenyl)-1,3-thiazol-2-yl]amino}phenyl)acetamide hydrobromide, whereby the effect on growth rate was insignificant, whereby the drug was administered 5 days/week at various dosages, whereby weight was measured every day during the treatment regimen (Monday-Friday), whereby the data is shown in three groups to compensate for variations in growth rate as the animals aged, whereby the listed days represent the number of days after the initial first administration, and whereby the bars represent the average growth rate±Standard deviation.
Mammalian species (i.e., rats) were used. Rats were fed a standard diet (3.5% fat, <0.02% cholesterol). Weaned rats were grouped into treated and controls. Rats were chosen as the testing animal so that 0.5 ml of blood samples could be taken for testing. Rats were anesthetized first in an induction chamber with isoflurane and oxygen (100%). Once anesthetized rats were positioned dorsally for the blood draw from the jugular or ventral tail vein. […]
N-(4-{[4-(3,4-dichlorophenyl)-1,3-thiazol-2-yl]amino}phenyl)acetamide hydrobromide was mixed with DMSO (solvent) in increasing dosages, which were feed to laboratory rats. […] Daily observations were recorded concerning (i) weight changes and (ii) mortality. […]

With `Br.CC(=O)Nc1ccc(Nc2nc(-c3ccc(Cl)c(Cl)c3)cs2)cc1` [N-(4-{[4-(3,4-dichlorophenyl)-1,3-thiazol-2-yl]amino}phenyl)acetamide hydrobromide] the “total serum cholesterol levels” value (rats [1]) was “significant decrease”, the “serum ALT levels, control (0 mg/kg) vs treated animals” value (rats [2]) was “no significant difference” and the “effect on growth rate” value [3] was “insignificant”.
